{
  "source": "patent US6984513B2",
  "about": "“Anaerobe targeted enzyme-mediated prodrug therapy” (priority 1994, dated 2006)",
  "key": {"[1]": {"test_system": "human breast and ovarian cancer cells", "settings": "cited from earlier work"}, "SCCVII cells": {"test_system": "SCCVII cells", "assay": "Growth inhibition of SCCVII cells by 5-FC or 5-FU with or without cell extract from recombinant C. sporogenes", "description": "The function of the C. sporogenes-derived cytosine deaminase was tested by assaying its ability to convert the nontoxic 5-fluorocytosine (5-FC) to the toxic 5-fluorouracil (5-FU)."}, "Walker carcinoma cells": {"test_system": "Walker carcinoma cells", "settings": "cited from earlier work"}, "[2]": {"test_system": "mouse and human tumor cell lines", "settings": "cited from earlier work"}, "Walker 256 rat carcinoma": {"test_system": "Walker 256 rat carcinoma", "settings": "cited from earlier work"}, "[3]": {"molecular_target": "nitroreductase enzyme from E. coli (Escherichia coli, UniProt P38489)", "sequence (P38489 whole entry)": "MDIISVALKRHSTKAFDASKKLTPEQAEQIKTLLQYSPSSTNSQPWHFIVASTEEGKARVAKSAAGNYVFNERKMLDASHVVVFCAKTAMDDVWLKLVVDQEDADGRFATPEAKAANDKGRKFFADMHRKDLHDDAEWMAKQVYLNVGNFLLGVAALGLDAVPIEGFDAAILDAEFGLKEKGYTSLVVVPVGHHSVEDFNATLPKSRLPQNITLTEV", "settings": "cited from earlier work"}, "SCCVII tumor cells": {"test_system": "SCCVII tumor cells", "assay": "Cell killing of SCCVII cells exposed to CB1954, NADH and supernatant from wild type or recombinant C. acetobutylicum (colony growth)", "settings": "2 hr incubation, NADH 500 μM", "procedure": "The ability of recombinant C. acetobutylicum to activate CB1954 was also tested in vitro, also as described in Example 1. Briefly, recombinant and wild type C. acetobutylicum were inoculated into medium, and after overnight incubation, the cultures were centrifuged and the supernatant collected. The supernatant was added to cultures of SCCVII tumor cells, along with addition of various concentrations of CB1954 in DMSO. After incubation for two hours, the cells were counted by hemocytometer, and appropriate dilutions plated and incubated for colony growth.\nIn order to test the ability of recombinant C. acetobutylicum to activate CB1954, recombinant and wild type C. acetobutylicum were inoculated into 20 ml of medium. After overnight incubation, the cultures were centrifuged and the supernatant collected and diluted 1:3 with Waymouth's growth medium. […] To these cultures, different concentrations of CB1954 in DMSO were added, and the amount of DMSO adjusted in all of the cultures (including the controls) to 1% DMSO. Controls consisted of cell culture with only the supernatant/cell culture medium mixture. […]\nAfter a 2 hr incubation in air at 37° C., the medium was removed, all the plates were washed 3 times with PBS, trypsinized, the cells counted by hemocytometer, and appropriate dilutions plated and incubated for 10 days in a 5% CO2 incubator at 370 C for colony growth."}, "[4]": {"settings": "prodrug alone; cited from earlier work"}, "[5]": {"settings": "cited from earlier work"}},
  "data": [
    {"compound": "glucuronide conjugate of epirubicin", "values": [
      {"measurement": "toxicity when combined with a Mab-β-glucuronidase conjugate", "setting": "[1]", "value": "as toxic as epirubicin"},
      {"measurement": "toxicity of the prodrug (fold less toxic)", "setting": "[1]; prodrug alone", "value": "approximately 100 fold"}
    ]},
    {"compound": "Nc1nc(=O)[nH]cc1F", "note": "[5-FC, 5-fluorocytosine]", "values": [
      {"measurement": "effect of cell extract from C. sporogenes transformed with an empty vector on sensitivity", "setting": "SCCVII cells", "value": "did not affect the sensitivity"},
      {"measurement": "toxicity of 5-FC plus cell extract from recombinant C. sporogenes compared with 5-FU", "setting": "SCCVII cells", "value": "same toxicity as 5-FU"},
      {"measurement": "increase in cytotoxicity of 5-FC by cell extract from recombinant C. sporogenes expressing cytosine deaminase (factor)", "setting": "SCCVII cells; cell extract 5, 10, 20 μg/ml", "value": "10^4"}
    ]},
    {"compound": "NC(=O)c1cc(N2CC2)c([N+](=O)[O-])cc1[N+](=O)[O-]", "note": "[CB1954, 5-[aziridine-1-yl]-2,4-dinitrobenzamide]", "values": [
      {"measurement": "activity on Walker carcinoma cells in vitro", "setting": "Walker carcinoma cells", "value": "potent activity"},
      {"measurement": "activity against a range of mouse and human tumor cell lines", "setting": "[2]", "value": "poor activity"},
      {"measurement": "difference in sensitivity between rat and human cells (factor)", "setting": "[2]", "value": "10^4-10^5"},
      {"measurement": "activity against Walker 256 rat carcinoma in vivo", "setting": "Walker 256 rat carcinoma", "value": "potent activity"},
      {"measurement": "rate of reduction of CB1954 relative to that of the rat DT diaphorase", "setting": "[3]", "value": 60, "unit": "times"},
      {"measurement": "enhancement of the toxicity of CB1954 by supernatant from transformed C. acetobutylicum", "setting": "SCCVII tumor cells", "value": "approximately 10 fold"}
    ]},
    {"compound": "butylated ammonium salt of the glucuronide conjugate of hydroxyanaline mustard", "values": [
      {"measurement": "potency relative to hydroxyanaline mustard (times less potent)", "setting": "[4]", "value": "10^3 times"}
    ]},
    {"compound": "O=C(O)[C@H]1O[C@@H](n2cc(F)c(=O)[nH]c2=O)[C@H](O)[C@@H](O)[C@@H]1O", "note": "[1-N-β-glucuronide of 5-fluorouracil]", "values": [
      {"measurement": "stability in vivo", "setting": "[5]", "value": "stable in vivo"}
    ]},
    {"compound": "O=c1[nH]cc(F)c(=O)[nH]1", "note": "[5-FU, 5-fluorouracil]", "values": [
      {"measurement": "effect of cell extract from recombinant C. sporogenes on sensitivity to 5-FU", "setting": "SCCVII cells", "value": "nor did cell extract from recombinant C. sporogenes affect sensitivity to 5-FU"}
    ]}
  ]
}
